This passage reports IC50 results from patent publication US8828401B2, “Cytotoxic peptides and antibody drug conjugates thereof” (Pfizer Inc., priority 2011, dated 2014).

Starred links: 1 amine or outer side, 2 acyl side, 3 side chain; linkers in the order of their positions; H or OH if unused. Non-standard residues stand in square brackets, D forms with d. Residues, ends and D or L forms follow the SMILES beside them. *: point of attachment. Dolaproine = CO[C@@H]([C@@H]1CCCN1)[C@@H](C)C(=O)O; X11 = O=C([C@@H](N[*:1])[C@H]1Cc2ccccc21)[*:2]; X2 = O=C([C@H](N[*:1])C1(c2ccccc2)CC1)[*:2]; Dil = CC[C@H](C)[C@H](NC)[C@@H](CC(=O)O)OC; Phe(4-NH2) = Nc1ccc(C[C@H](N)C(=O)O)cc1; X9 = Cc1cc(-c2nc3cc(F)ccc3s2)ccc1N*; Doe = c1ccc(C[C@H](N*)c2nccs2)cc1; αMeP = C[C@@]1(C(=O)O)CCCN1; X1 = CN1CCC[C@]1(C)C(=O)*; NMeAib = CNC(C)(C)C(=O)O; X4 = CN(C)C(C)(C)C(=O)*; Ac3c = NC1(C(=O)O)CC1; Aib = CC(C)(N)C(=O)O; NHtBu = CC(C)(C)N*; OtBu = CC(C)(C)O*; OAll = C=CCO*

Common to all, as to test: In vitro cell assay, MTS cell viability 96 hours after treatment
What all share (assay type): cell-based

Assay [1] relates to MDA-MB-361-DYT2 (breast cancer). The conditions noted are these: read-out: MDA-MB-361-DYT2 GMEAN IC50, MDA-MB-361-DYT2 cells; geometric mean; cytotoxic peptides. The procedure:
(§1) Cells were treated with 3-fold serially diluted antibody-drug conjugates or free compounds (i.e., no antibody conjugated to the drug) in duplicate at 10 concentrations. Cell viability was determined by CellTiter 96® AQueous One Solution Cell Proliferation MTS Assay (Promega, Madison Wis.) 96 hours after treatment. Relative cell viability was determined as percentage of untreated control.

The next assay deals with BT474 (breast cancer). The conditions noted are these: Homo sapiens, BT-474, BT474 cells; geometric mean; cytotoxic peptides; read-out: BT474 GMEAN IC50. As to the method:
as §1

Another assay deals with N87 (gastric cancer). The note with it: read-out: N87 GMEAN IC50, N87 cells; geometric mean; cytotoxic peptides. As to the method:
as §1

Take `CC[C@H](C)[C@@H]([C@@H](CC(=O)N1CCC[C@H]1[C@H](OC)[C@@H](C)C(=O)NCCC1C=CC=CC=C1)OC)N(C)C(=O)[C@@H](NC(=O)[C@@]1(C)CCCCN1)C(C)C` [#180, (2R)—N-[(2S)-1-{[(3R,4S,5S)-1-{(2S)-2-[(1R,2R)-3-{[2-(cyclohepta-2,4,6-trien-1-yl)ethyl]amino}-1-methoxy-2-methyl-3-oxopropyl]pyrrolidin-1-yl}-3-methoxy-5-methyl-1-oxoheptan-4-yl](methyl)amino}-3-methyl-1-oxobutan-2-yl]-2-methylpiperidine-2-carboxamide]: the figures for the IC50 (in assay [1]; in the assay on BT474 (breast cancer)) were 0.113 nM and 0.159 nM, respectively.

In the case of `CC[C@H](C)[C@@H]([C@@H](CC(=O)N1CCC[C@H]1[C@H](OC)[C@@H](C)C(=O)N[C@@H](C(=O)OC)C1(c2ccccc2)CC1)OC)N(C)C(=O)[C@@H](NC(=O)C(C)(C)N)C(C)C` [#222] (H-[Aib]V[Dil][Dolaproine][X2]-OMe), the IC50 in the assay on N87 (gastric cancer) is 0.352 nM; with BT474 (breast cancer), 0.158 nM.

Regarding `CC[C@H](C)[C@@H]([C@@H](CC(=O)N1CCC[C@H]1[C@H](OC)[C@@H](C)C(=O)N[C@H](C(=O)OC)[C@H]1Cc2ccccc21)OC)N(C)C(=O)[C@@H](NC(=O)C(C)(C)N)C(C)C` [#225] (H-[Aib]V[Dil][Dolaproine][X11]-OMe), the IC50 worked out at 10.5 nM in the assay with N87 (gastric cancer) and 3.45 nM with BT474 (breast cancer).

On to `CC[C@H](C)[C@@H]([C@@H](CC(=O)N1CCC[C@H]1[C@H](OC)[C@@H](C)C(=O)N[C@@H](Cc1ccc(N)cc1)C(=O)OC)OC)N(C)C(=O)[C@@H](NC(=O)[C@@]1(C)CCCN1C)C(C)C` [#201, 1,2-dimethyl-D-prolyl-N-[(3R,4S,5S)-1-{(2S)-2-[(1R,2R)-3-{[(2S)-3-(4-aminophenyl)-1-methoxy-1-oxopropan-2-yl]amino}-1-methoxy-2-methyl-3-oxopropyl]pyrrolidin-1-yl}-3-methoxy-5-methyl-1-oxoheptan-4-yl]-N-methyl-L-valinamide] (X1-V[Dil][Dolaproine][Phe(4-NH2)]-OMe), for which the IC50 in assay [1] worked out at 0.121 nM; in the assay on BT474 (breast cancer), 0.144 nM.

Regarding `CC[C@H](C)[C@@H]([C@@H](CC(=O)N1CCC[C@H]1[C@H](OC)[C@@H](C)C(=O)N[C@@H](Cc1ccccc1)C(=O)OC(C)(C)C)OC)N(C)C(=O)[C@@H](NC(=O)C(C)(C)NC)C(C)C` [#130, N,2-dimethylalanyl-N-[(3R,4S,5S)-1-{(2S)-2-[(1R,2R)-3-{[(2S)-1-tert-butoxy-1-oxo-3-phenylpropan-2-yl]amino}-1-methoxy-2-methyl-3-oxopropyl]pyrrolidin-1-yl}-3-methoxy-5-methyl-1-oxoheptan-4-yl]-N-methyl-L-valinamide] (H-[NMeAib]V[Dil][Dolaproine]F-OtBu), the IC50 in assay [1] turned out to be 0.039 nM; in the assay on BT474 (breast cancer) it was 0.05 nM.

For the molecule `CC[C@H](C)[C@@H]([C@@H](CC(=O)N1CCC[C@H]1[C@H](OC)[C@@H](C)C(=O)N[C@@H](Cc1ccccc1)C(=O)NC(C)(C)C)OC)N(C)C(=O)[C@@H](NC(=O)C(C)(C)NC)C(C)C` [#144, N,2-dimethylalanyl-N-{(1S,2R)-4-{(2S)-2-[(1R,2R)-3-{[(1S)-1-benzyl-2-(tert-butylamino)-2-oxoethyl]amino}-1-methoxy-2-methyl-3-oxopropyl]pyrrolidin-1-yl}-2-methoxy-1-[(1S)-1-methylpropyl]-4-oxobutyl}-N-methyl-L-valinamide] (H-[NMeAib]V[Dil][Dolaproine]F-NHtBu), the IC50 in assay [1] is 0.174 nM; with BT474 (breast cancer) it was 0.172 nM.

In the case of `CC[C@H](C)[C@@H]([C@@H](CC(=O)N1CCC[C@H]1[C@H](OC)[C@@H](C)C(=O)N[C@@H](Cc1ccccc1)C(=O)O)OC)N(C)C(=O)[C@@H](NC(=O)C(C)(C)N)C(C)C` [#69, 2-methylalanyl-N-[(3R,4S,5S)-1-{(2S)-2-[(1R,2R)-3-{[(1S)-1-carboxy-2-phenylethyl]amino}-1-methoxy-2-methyl-3-oxopropyl]pyrrolidin-1-yl}-3-methoxy-5-methyl-1-oxoheptan-4-yl]-N-methyl-L-valinamide] (H-[Aib]V[Dil][Dolaproine]F-OH), the IC50 stood at 66 nM in the assay with N87 (gastric cancer) and 80.2 nM with BT474 (breast cancer).

`CC[C@H](C)[C@@H]([C@@H](CC(=O)N1CCC[C@H]1[C@H](OC)[C@@H](C)C(=O)N[C@@H](Cc1ccccc1)c1nccs1)OC)N(C)C(=O)[C@@H](NC(=O)[C@]1(F)CCNC1)C(C)C` [#194, N˜2˜-{[(3S)-3-fluoropyrrolidin-3-yl]carbonyl}-N-[(3R,4S,5S)-3-methoxy-1-{(2S)-2-[(1R,2R)-1-methoxy-2-methyl-3-oxo-3-{[(1S)-2-phenyl-1-(1,3-thiazol-2-yl)ethyl]amino}propyl]pyrrolidin-1-yl}-5-methyl-1-oxoheptan-4-yl]-N-methyl-L-valinamide]: the IC50 in assay [1] was determined as 0.198 nM; in the assay with BT474 (breast cancer), 0.134 nM.

Regarding `CC[C@H](C)[C@@H]([C@@H](CC(=O)N1CCC[C@H]1[C@H](OC)[C@@H](C)C(=O)N[C@@H](Cc1ccccc1)C(=O)OC)OC)N(C)C(=O)[C@@H](NC(=O)C(C)(C)N(C)C)C(C)C` [#228] (X4-V[Dil][Dolaproine]F-OMe), the IC50 is 0.09 nM in the assay with N87 (gastric cancer) and 0.105 nM with BT474 (breast cancer).

Turning to `CC[C@H](C)[C@@H]([C@@H](CC(=O)N1CCC[C@H]1[C@H](OC)[C@@H](C)C(=O)N[C@@H](Cc1ccccc1)C(=O)Nc1ccc(-c2nc3cc(F)ccc3s2)cc1C)OC)N(C)C(=O)[C@@H](NC(=O)C(C)(C)N)C(C)C` [#235] (H-[Aib]V[Dil][Dolaproine]F-X9), the IC50 in assay [1] came out at 1.28 nM; in the assay on BT474 (breast cancer), 0.852 nM.

Regarding `CC[C@H](C)[C@@H]([C@@H](CC(=O)N1CCC[C@H]1[C@H](OC)[C@@H](C)C(=O)N[C@@H](Cc1ccccc1)C(=O)OC)OC)N(C)C(=O)[C@@H](NC(=O)[C@]1(C)CCCN1)C(C)C` [#117, 2-methyl-L-prolyl-N-{(1S,2R)-4-{(2S)-2-[(1R,2R)-3-{[(1S)-1-benzyl-2-methoxy-2-oxoethyl]amino}-1-methoxy-2-methyl-3-oxopropyl]pyrrolidin-1-yl}-2-methoxy-1-[(1S)-1-methylpropyl]-4-oxobutyl}-N-methyl-L-valinamide] (H-[αMeP]V[Dil][Dolaproine]F-OMe), the IC50 in assay [1] stood at 0.118 nM; in the assay with BT474 (breast cancer), 0.096 nM.

For the molecule `C=CCOC(=O)[C@H](Cc1ccccc1)NC(=O)[C@H](C)[C@@H](OC)[C@@H]1CCCN1C(=O)C[C@@H](OC)[C@H]([C@@H](C)CC)N(C)C(=O)[C@@H](NC(=O)C(C)(C)NC)C(C)C` [#238] (H-[NMeAib]V[Dil][Dolaproine]F-OAll), the IC50 in the assay on N87 (gastric cancer) is 0.077 nM; in the assay with BT474 (breast cancer), 0.139 nM.

Consider `CC[C@H](C)[C@@H]([C@@H](CC(=O)N1CCC[C@H]1[C@H](OC)[C@@H](C)C(=O)N[C@@H](Cc1ccccc1)c1nccs1)OC)N(C)C(=O)[C@@H](NC(=O)C1(N)CC1)C(C)C` [#51, N^2-[(1-aminocyclopropyl)carbonyl]-N-[(3R,4S,5S)-3-methoxy-1-{(2S)-2-[(1R,2R)-1-methoxy-2-methyl-3-oxo-3-{[(1S)-2-phenyl-1-(1,3-thiazol-2-yl)ethyl]amino}propyl]pyrrolidin-1-yl}-5-methyl-1-oxoheptan-4-yl]-N-methyl-L-valinamide] (H-[Ac3c]V[Dil][Dolaproine]-Doe), for which the IC50 in the assay with N87 (gastric cancer) is 3.66 nM; in the assay on BT474 (breast cancer), below 0.599 nM.

In the case of `CC[C@H](C)[C@@H]([C@@H](CC(=O)N1CCC[C@H]1[C@H](OC)[C@@H](C)C(=O)N[C@@H](Cc1ccccc1)c1nccs1)OC)N(C)C(=O)[C@@H](NC(=O)[C@@]1(C)CCCCN1)C(C)C` [#190, (2R)—N-[(2S)-1-{[(3R,4S,5S)-3-methoxy-1-{(2S)-2-[(1R,2R)-1-methoxy-2-methyl-3-oxo-3-{[(1S)-2-phenyl-1-(1,3-thiazol-2-yl)ethyl]amino}propyl]pyrrolidin-1-yl}-5-methyl-1-oxoheptan-4-yl](methyl)amino}-3-methyl-1-oxobutan-2-yl]-2-methylpiperidine-2-carboxamide], the concentration for half-maximal inhibition (IC50) in the assay with N87 (gastric cancer) came to 0.066 nM; in the assay on BT474 (breast cancer) it was 0.134 nM.

Take `CC[C@H](C)[C@@H]([C@@H](CC(=O)N1CCC[C@H]1[C@H](OC)[C@@H](C)C(=O)N[C@@H](Cc1ccccc1)c1nccs1)OC)N(C)C(=O)[C@@H](NC(=O)[C@@]1(F)CCNC1)C(C)C` [#192, N˜2˜-{[(3R)-3-fluoropyrrolidin-3-yl]carbonyl}-N-[(3R,4S,5S)-3-methoxy-1-{(2S)-2-[(1R,2R)-1-methoxy-2-methyl-3-oxo-3-{[(1S)-2-phenyl-1-(1,3-thiazol-2-yl)ethyl]amino}propyl]pyrrolidin-1-yl}-5-methyl-1-oxoheptan-4-yl]-N-methyl-L-valinamide]: the IC50 in assay [1] amounted to 0.408 nM; in the assay with BT474 (breast cancer) it was 0.262 nM.

Regarding `CC[C@H](C)[C@@H]([C@@H](CC(=O)N1CCC[C@H]1[C@H](OC)[C@@H](C)C(=O)N[C@@H](Cc1ccccc1)C(=O)OC)OC)N(C)C(=O)[C@@H](NC(=O)[C@@]1(C)CCCCN1)C(C)C` (single isomer, unassigned) [#159], the IC50 was determined as 0.075 nM in the assay with N87 (gastric cancer) and 0.07 nM in the assay with BT474 (breast cancer).

Consider `CC[C@H](C)[C@@H]([C@@H](CC(=O)N1CCC[C@H]1[C@H](OC)[C@@H](C)C(=O)N[C@@H](Cc1ccccc1)C(N)=O)OC)N(C)C(=O)[C@@H](NC(=O)C(C)(C)NC)C(C)C` [#141, N,2-dimethylalanyl-N-{(1S,2R)-4-{(2S)-2-[(1R,2R)-3-{[(1S)-2-amino-1-benzyl-2-oxoethyl]amino}-1-methoxy-2-methyl-3-oxopropyl]pyrrolidin-1-yl}-2-methoxy-1-[(1S)-1-methylpropyl]-4-oxobutyl}-N-methyl-L-valinamide] (H-[NMeAib]V[Dil][Dolaproine]F-NH2), for which the IC50 turned out to be 3.02 nM with N87 (gastric cancer) and 3.37 nM with BT474 (breast cancer).
